Measured values taken from PMC4237199 (The Prostate, 2014).

Molecular target: Prostate-specific membrane antigen (PSMA), canine (Canis lupus, UniProt I4IY07)
Assay: HPLC-based enzyme inhibition assay
Assay type: biochemical

Chain of Prostate-specific membrane antigen (PSMA), canine (I4IY07 29-779): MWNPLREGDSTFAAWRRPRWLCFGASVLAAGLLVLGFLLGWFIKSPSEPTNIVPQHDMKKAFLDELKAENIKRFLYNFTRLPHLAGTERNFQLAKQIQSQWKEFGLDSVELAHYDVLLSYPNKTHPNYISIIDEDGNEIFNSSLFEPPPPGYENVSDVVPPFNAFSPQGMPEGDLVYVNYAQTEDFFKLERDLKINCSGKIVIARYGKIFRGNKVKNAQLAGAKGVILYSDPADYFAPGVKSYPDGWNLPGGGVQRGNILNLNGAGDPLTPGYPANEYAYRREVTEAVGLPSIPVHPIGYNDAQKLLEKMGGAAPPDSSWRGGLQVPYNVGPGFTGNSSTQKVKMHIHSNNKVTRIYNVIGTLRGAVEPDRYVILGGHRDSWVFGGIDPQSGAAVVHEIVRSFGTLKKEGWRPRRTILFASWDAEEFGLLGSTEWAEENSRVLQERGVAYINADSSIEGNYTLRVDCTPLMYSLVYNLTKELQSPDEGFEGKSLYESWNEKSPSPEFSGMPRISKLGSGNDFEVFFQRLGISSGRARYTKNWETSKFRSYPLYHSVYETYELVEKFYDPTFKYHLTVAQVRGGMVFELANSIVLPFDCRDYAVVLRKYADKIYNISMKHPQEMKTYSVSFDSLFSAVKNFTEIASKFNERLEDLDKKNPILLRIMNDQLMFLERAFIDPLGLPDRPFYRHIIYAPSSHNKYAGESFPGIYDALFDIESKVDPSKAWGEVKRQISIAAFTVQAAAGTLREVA

IC50: 1.6 nM
Substance: FAMX-CTT-54 [compound 2]
